Laboratory results as given in US20240415918A1, “Polypeptide and its use as a CCK receptor agonist/antagonist” (Centre for Regenerative Medicine & Health, Hong Kong …, priority 2021, published 2024).
Where a SMILES comes first, the peptide text is derived from it. Where no end group is shown, it is not given here. [ ]: non-standard residue; d: D form. Phe(3-Br) = N[C@@H](Cc1cccc(Br)c1)C(=O)O

Assays:
[1] = target: T1, CCK-B receptors (CHO-CCK) (Homo sapiens, UniProt P32239); experiment: Calcium flux (Fluo-8) agonist test on CHO-CCK model cells; format: cell-based; details: for EC50 / % Act-Ave @ 1 nM / % Act-Ave @ 50 nM: CHO-CCK cells; for Agonistic Activity (%) at 10 μM: compound at 10 μM, percentage of signal of 20 nM CCK8 alone; for % Act-Ave @ 1 nM: compound at 1 nM; for % Act-Ave @ 50 nM: compound at 50 nM
T1 construct: expressed in transfected cells; host or cells: CHO (CHO-CCK model cells)
T1 sequence (P32239 1-447): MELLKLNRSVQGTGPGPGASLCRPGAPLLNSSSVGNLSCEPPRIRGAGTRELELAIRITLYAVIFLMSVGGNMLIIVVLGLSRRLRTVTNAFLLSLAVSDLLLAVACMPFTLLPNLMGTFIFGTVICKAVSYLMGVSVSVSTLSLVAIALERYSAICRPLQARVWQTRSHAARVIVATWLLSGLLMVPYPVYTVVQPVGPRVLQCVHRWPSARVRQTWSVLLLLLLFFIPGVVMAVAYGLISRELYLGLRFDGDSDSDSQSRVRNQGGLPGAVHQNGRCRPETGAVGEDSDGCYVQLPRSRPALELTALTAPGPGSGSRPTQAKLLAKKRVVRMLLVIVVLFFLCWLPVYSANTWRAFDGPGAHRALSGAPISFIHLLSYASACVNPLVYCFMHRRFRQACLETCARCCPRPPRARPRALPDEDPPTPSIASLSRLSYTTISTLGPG
In short: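 Agonist-mode Fluo-8 calcium flux read on CHO-CCK cells after dye loading 30 min at 37 °C plus 30 min at room temperature.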

[2] = target: T1, CCK-B receptors (CHO-CCK); experiment: Calcium flux (Fluo-8) antagonist test on CHO-CCK model cells in presence of CCK8; format: cell-based
Experimental: The compound was formulated to a 10 mM mother liquor with DMSO, and then diluted into a series of 9 concentrations with a 3-fold gradient to form a 1000× stock solution. […] Prepare 1×Fluo-8 analysis buffer: mix 9 mL of HHBS, 1 mL of 10× Pluronic F127 Plus and 20 μL of Fluo-8 thoroughly for later use. • 3. Add Fluo-8 dye working solution to the cell plate, 100 μL/well. First incubate in a 37° C. incubator for 30 min, and then take it out and incubate at room temperature in the dark for 30 min. • 4. In the process of incubating cells, the compounds to be detected were prepared with HHBS. • 5. […] The agonism/antagonism EC50 of the compound can be obtained by plotting the fitting curve with the agonism/antagonism percentage as Y-axis and the concentration of the compound as X-axis.

[3] = compound alone, 100% = 20 nM CCK8
[4] = compound together with 10 nM CCK8
[5] = Fluo-8 calcium flux, 100% control = 20 nM CCK8

Compound | EC50 [1, 3] | Agonistic Activity (%) at 10 μM [1] | EC50 [2, 4] | also measured
CSCC[C@H](NC(=O)[C@H](N)Cc1c[nH]c2ccccc12)C(=O)N[C@@H](CC(=O)O)C(=O)N[C@@H](Cc1ccccc1[N+](=O)[O-])C(N)=O [HT-24, D-Trp-Met-Asp-Phe(2-NO2)-NH2] | 0.206 µM | 50.60% | 0.624 µM | 
CSCC[C@H](NC(=O)[C@H](N)Cc1c[nH]c2ccccc12)C(=O)N[C@@H](CC(=O)O)C(=O)N[C@@H](Cc1ccccc1F)C(N)=O [HT-25, D-Trp-Met-Asp-Phe(2-F)-NH2] | 0.225 µM | 89.41% | 0.603 µM | 
CSCC[C@H](NC(=O)[C@H](N)Cc1c[nH]c2ccccc12)C(=O)N[C@@H](CC(=O)O)C(=O)N[C@@H](Cc1cccc(Cl)c1)C(N)=O [HT-26, D-Trp-Met-Asp-Phe(3-Cl)-NH2] | 0.0784 µM | 85.75% | 0.635 µM | 
CSCC[C@H](NC(=O)[C@H](N)Cc1c[nH]c2ccccc12)C(=O)N[C@@H](CC(=O)O)C(=O)N[C@@H](Cc1cccc(F)c1)C(N)=O [HT-27, D-Trp-Met-Asp-Phe(3-F)-NH2] | 0.155 µM | 79.08% | 1.34 µM | 
CSCC[C@H](NC(=O)[C@H](N)Cc1c[nH]c2ccccc12)C(=O)N[C@@H](CC(=O)O)C(=O)N[C@@H](Cc1cccc(I)c1)C(N)=O [HT-28, D-Trp-Met-Asp-Phe(3-I)-NH2] | 0.154 µM | 49.93% | 0.149 µM | 
CSCC[C@H](NC(=O)[C@H](N)Cc1c[nH]c2ccccc12)C(=O)N[C@@H](CC(=O)O)C(=O)N[C@@H](Cc1cccc(Br)c1)C(N)=O [HT-29, D-Trp-Met-Asp-Phe(3-Br)-NH2] | 0.0081 µM | 85.68% | 0.106 µM | 
CSCC[C@H](NC(=O)[C@H](N)Cc1c[nH]c2ccccc12)C(=O)N[C@@H](CC(=O)O)C(=O)N[C@@H](Cc1ccc(C)cc1)C(N)=O [HT-30, D-Trp-Met-Asp-Phe(4 Me)-NH2] | 0.0932 µM | 88.74% | 0.683 µM | 
CSCC[C@H](NC(=O)[C@H](N)Cc1c[nH]c2ccccc12)C(=O)N[C@@H](CC(=O)O)C(=O)N[C@@H](Cc1ccc(C#N)cc1)C(N)=O [HT-32, D-Trp-Met-Asp-Phe(4-CN)-NH2] | 1.13 µM | 57.37% | 2.66 µM | 
CSCC[C@H](NC(=O)[C@H](N)Cc1c[nH]c2ccccc12)C(=O)N[C@@H](CC(=O)O)C(=O)N[C@@H](Cc1ccc([N+](=O)[O-])cc1)C(N)=O [HT-33, D-Trp-Met-Asp-Phe(4-NO2)-NH2] | 0.241 µM | 71.20% | 1.2 µM | 
CSCC[C@H](NC(=O)[C@H](N)Cc1c[nH]c2ccccc12)C(=O)N[C@@H](CC(=O)O)C(=O)N[C@@H](Cc1ccc(Br)cc1)C(N)=O [HT-34, D-Trp-Met-Asp-Phe(4-Br)-NH2] | 0.369 µM | 98.24% | 2.25 µM | 
CSCC[C@H](NC(=O)[C@H](N)Cc1c[nH]c2ccccc12)C(=O)N[C@@H](CC(=O)O)C(=O)N[C@@H](Cc1ccc(Cl)cc1)C(N)=O [HT-35, D-Trp-Met-Asp-Phe(4-CII)-NH2] | 0.18 µM | 109.16% | 0.755 µM | 
CSCC[C@H](NC(=O)[C@H](N)Cc1c[nH]c2ccccc12)C(=O)N[C@@H](CC(=O)O)C(=O)N[C@@H](Cc1ccc(F)cc1)C(N)=O [HT-36, D-Trp-Met-Asp-Phe(4-F)-NH2] | 0.0888 µM | −3.55% | 0.876 µM | 
CSCC[C@H](NC(=O)[C@H](N)Cc1c[nH]c2ccccc12)C(=O)N[C@@H](CC(=O)O)C(=O)N[C@@H](Cc1ccc(I)cc1)C(N)=O [HT-37, D-Trp-Met-Asp-Phe(4-I)-NH2] | 0.864 µM | 52.04% | 1.22 µM | 
CSCC[C@H](NC(=O)[C@H](N)Cc1c[nH]c2ccccc12)C(=O)N[C@@H](CC(=O)O)C(=O)N[C@@H](Cc1cc(Cl)cc(Cl)c1)C(N)=O [HT-38, D-Trp-Met-Asp-Phe(3,5-DiCl)-NH2] | 0.0493 µM | 122.74% | 0.0997 µM | 
CSCC[C@H](NC(=O)[C@H](N)Cc1c[nH]c2ccccc12)C(=O)N[C@@H](CC(=O)O)C(=O)N[C@@H](Cc1cc(F)cc(F)c1)C(N)=O [HT-39, D-Trp-Met-Asp-Phe(3,5-DiF)-NH2] | 0.0442 µM | 119.04% | 0.631 µM | 
CSCC[C@H](NC(=O)[C@H](N)Cc1c[nH]c2ccccc12)C(=O)N[C@@H](CC(=O)O)C(=O)N[C@@H](Cc1cc(F)c(F)c(F)c1)C(N)=O [HT-40, D-Trp-Met-Asp-Phe(3,4,5-TriF)-NH2] | 0.078 µM | 98.25% | 0.244 µM | 
C[S+]([O-])CC[C@H](NC(=O)[C@H](N)Cc1c[nH]c2ccccc12)C(=O)N[C@@H](CC(=O)O)C(=O)N[C@@H](Cc1ccccc1F)C(N)=O (stereo partly drawn) [HT-42, D-Trp-Met(O)-Asp-Phe(2-F)-NH2] |  | 17.97% | 8.41 µM | 
C[S+]([O-])CC[C@H](NC(=O)[C@H](N)Cc1c[nH]c2ccccc12)C(=O)N[C@@H](CC(=O)O)C(=O)N[C@@H](Cc1cccc(Cl)c1)C(N)=O (stereo partly drawn) [HT-43, D-Trp-Met(O)-Asp-Phe(3-Cl)-NH2] | 3.02 µM | 62.14% | 8.97 µM | 
C[S+]([O-])CC[C@H](NC(=O)[C@H](N)Cc1c[nH]c2ccccc12)C(=O)N[C@@H](CC(=O)O)C(=O)N[C@@H](Cc1cccc(F)c1)C(N)=O (stereo partly drawn) [HT-44, D-Trp-Met(O)-Asp-Phe(3-F)-NH2] |  | 34.63% |  | EC50 ([2]; compound together with 10 nM CCK8, bound in μM): > 10 µM
CSCC[C@H](NC(=O)[C@H](Cc1c[nH]c2ccccc12)NC(C)=O)C(=O)N[C@@H](CC(=O)O)C(=O)N[C@@H](CCC(=O)O)C(N)=O [HT-197, Ac-Trp-Met-Asp-Gln-NH2] |  |  |  | EC50 ([2]; in presence of 10 nM CCK8): 1.67 µM
C[C@@H](NC(=O)[C@H](Cc1cccc(Br)c1)NC(=O)[C@H](CC(=O)O)NC(=O)[C@H](CCCCN)NC(=O)[C@H](N)Cc1c[nH]c2ccccc12)C(N)=O [HT-288, D-Trp-Lys-Asp-Phe(3-Br)-D-Ala-NH2] (H-[dW]KD[Phe(3-Br)][dA]-NH2) |  |  |  | EC50 ([1]; Fluo-8 calcium flux, bound in μM): > 10 µM
CC(C)C[C@H](NC(=O)[C@H](N)Cc1c[nH]c2ccccc12)C(=O)N[C@@H](CC(=O)O)C(=O)N[C@@H](Cc1cccc(Br)c1)C(=O)N[C@H](C)C(N)=O [HT-289, D-Trp-Val-Asp-Phe(3-Br)-D-Ala-NH2] |  |  |  | EC50 [1, 5]: 3.19 µM
CSCC[C@H](NC(=O)[C@H](N)Cc1c[nH]c2ccccc12)C(=O)N[C@@H](CC(=O)O)C(=O)N[C@@H](Cc1cccc(Br)c1)C(=O)N[C@H](C)C(N)=O [HT-290, D-Trp-Met-Asp-Phe(3-Br)-D-Ala-NH2] (H-[dW]MD[Phe(3-Br)][dA]-NH2) |  |  |  | EC50 [1, 5]: 6.68 µM
CSCC[C@@H]1NC(=O)[C@H](Cc2c[nH]c3ccccc23)NCCC(=O)CNC(=O)CNC(=O)CNC(=O)CNC(=O)[C@H](Cc2cccc(Br)c2)NC(=O)[C@H](CC(=O)O)NC1=O [HT-291, cyclo(Trp-Met-Asp-Phe(3-Br)-Gly-Gly-Gly-Gly)] |  |  |  | EC50 [1, 5]: 10.6 µM
CSCC[C@H](NC(=O)[C@H](Cc1c[nH]c2ccccc12)NC(=O)[C@@H](C)N)C(=O)N[C@@H](CC(=O)O)C(=O)N[C@@H](Cc1cccc(Br)c1)C(=O)N[C@H](C)C(N)=O [HT-292, D-Ala-Trp-Met-Asp-Phe(3-Br)-D-Ala-NH2] (H-[dA]WMD[Phe(3-Br)][dA]-NH2) |  |  |  | EC50 [1, 5]: 1.45 µM
HHHHHHSSGGDYMGWKDF-NH2 [HT-287] |  |  |  | % Act-Ave @ 1 nM [1]: 77.83%; % Act-Ave @ 50 nM [1]: 99.10%
HHHHHHSSGGWKDF-NH2 [HT-286] |  |  |  | % Act-Ave @ 1 nM [1]: −0.40%; % Act-Ave @ 50 nM [1]: −0.52%
